Where “and” joins values, the source holds several entries; their conditions need not be identical. Equal entries are not always repeated. Inconclusive results and toxic doses are left out. The calls were made as follows: active = survival T/C of 150% or more; inactive = T/C below 125% in these data.
Test system: P388 leukemia ip, CD2F1 mice, survival T/C
Assay: NCI In Vivo Anticancer Drug Screen. Data for tumor model P388 Leukemia (intraperitoneal) in CD2F1 (CDF1) mice
Conditions: endpoint: median survival time, higher = longer survival
In short: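 Mice carrying the transplanted tumor received test compound or vehicle. Survival was recorded in each group, and the value is the treated-group measurement divided by that of the vehicle-treated control group.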

[1] = dose: 100.0 mg/kg/injection, schedule: Q01DX009 (ip), vehicle: saline with Tween-80
[2] = dose: 200.0 mg/kg/injection, schedule: Q01DX009 (ip), vehicle: saline with Tween-80
[3] = dose: 400.0 mg/kg/injection, schedule: Q01DX009 (ip), vehicle: saline with Tween-80
[4] = dose: 50.0 mg/kg/injection, schedule: Q01DX005 (ip), vehicle: Klucel (hydroxypropylcellulose) (HPC)
[5] = dose: 100.0 mg/kg/injection, schedule: Q01DX005 (ip), vehicle: Klucel (hydroxypropylcellulose) (HPC)
[6] = dose: 200.0 mg/kg/injection, schedule: Q01DX005 (ip), vehicle: Klucel (hydroxypropylcellulose) (HPC)
[7] = dose: 50.0 mg/kg/injection, schedule: Q01DX005 (ip), vehicle: saline with Tween-80
[8] = dose: 100.0 mg/kg/injection, schedule: Q01DX005 (ip), vehicle: saline with Tween-80
[9] = dose: 50.0 mg/kg/injection, schedule: Q01DX009 (ip), vehicle: Klucel (hydroxypropylcellulose) (HPC)
[10] = dose: 100.0 mg/kg/injection, schedule: Q01DX009 (ip), vehicle: Klucel (hydroxypropylcellulose) (HPC)
[11] = dose: 200.0 mg/kg/injection, schedule: Q01DX009 (ip), vehicle: Klucel (hydroxypropylcellulose) (HPC)
[12] = dose: 60.0 mg/kg/injection, schedule: Q01DX005 (ip), vehicle: saline with Tween-80
[13] = dose: 120.0 mg/kg/injection, schedule: Q01DX005 (ip), vehicle: saline with Tween-80
[14] = dose: 240.0 mg/kg/injection, schedule: Q01DX005 (ip), vehicle: saline with Tween-80
[15] = dose: 100.0 mg/kg/injection, schedule: Q01DX009 (ip), vehicle: saline
[16] = dose: 200.0 mg/kg/injection, schedule: Q01DX009 (ip), vehicle: saline
[17] = dose: 200.0 mg/kg/injection, schedule: Q01DX005 (ip), vehicle: saline with Tween-80

Measured: T/C

OCC(O)C(O)Cc1cnc(C(O)C(O)C(O)CO)cn1 (centres undefined)
inactive: dose: 50.0 mg/kg/injection, schedule: Q01DX009 (ip), vehicle: other 93 % of control | dose: 100.0 mg/kg/injection, schedule: Q01DX009 (ip), vehicle: other 96 % of control | dose: 200.0 mg/kg/injection, schedule: Q01DX009 (ip), vehicle: other 102 % of control | dose: 400.0 mg/kg/injection, schedule: Q01DX009 (ip), vehicle: other 108 % of control | dose: 800.0 mg/kg/injection, schedule: Q01DX009 (ip), vehicle: other 102 % of control

O=C1c2ccccc2CC1(Br)C(Br)c1ccccc1 (centres undefined)
inactive: [1] 109 % of control | dose: 100.0 mg/kg/injection, schedule: Q04DX003 (ip), vehicle: saline with Tween-80 96 % of control | [2] 118 % of control | dose: 200.0 mg/kg/injection, schedule: Q04DX003 (ip), vehicle: saline with Tween-80 92 % of control | [3] 109 % of control | dose: 400.0 mg/kg/injection, schedule: Q04DX003 (ip), vehicle: saline with Tween-80 92 % of control

O=C(CC1(O)C(=O)Nc2c(Cl)cccc21)c1cccs1 (centres undefined)
inactive: [4] 103 % of control | [5] 100 % of control | [6] 104 % of control

c1ccc(-c2ccc[n+](CCC[n+]3cccc(-c4ccccn4)c3)c2)nc1
inactive: [7] 114 % of control | [8] 114 % of control

Cc1c(C)[n+](=O)c2ccc(/C=[N+](\C)[O-])cc2n1[O-]
inactive: [9] 98 % of control | [10] 100 % of control | [11] 101 % of control

NC(=O)Nc1ccccc1O
inactive: [1] 98 % of control | [2] 117 % of control | [3] 107 % of control

S=c1c(-c2ccccc2)cnc2sccn12
inactive: [12] 100 % of control | [13] 96 % of control | [14] 98 % of control

O=C(CCl)NC(Cc1ccccc1F)C(=O)O (centres undefined)
inactive: dose: 50.0 mg/kg/injection, schedule: Q01DX009 (ip), vehicle: saline 106 % of control | [15] 102 % of control | [16] 101 % of control

CCC1NN1C(C)C (centres undefined)
inactive: dose: 50.0 mg/kg/injection, schedule: Q04DX002 (ip), vehicle: saline with Tween-80 100 % of control | dose: 100.0 mg/kg/injection, schedule: Q04DX002 (ip), vehicle: saline with Tween-80 95 % of control | dose: 200.0 mg/kg/injection, schedule: Q04DX002 (ip), vehicle: saline with Tween-80 107 % of control

Nc1cc(Cl)c2[nH]c(-c3ccccc3)nc2n1
inactive: dose: 50.0 mg/kg/injection, schedule: Q01DX001 (ip), vehicle: saline with Tween-80 96 % of control | dose: 100.0 mg/kg/injection, schedule: Q01DX001 (ip), vehicle: saline with Tween-80 94 % of control

CCCCCCCCCC(=O)c1ccc(O)c(O)c1O
inactive: [15] 100 % of control | [16] 105 % of control

Cc1nc(O)c(-c2ccccc2)s1
inactive: dose: 50.0 mg/kg/injection, schedule: Q01DX009 (ip), vehicle: saline with Tween-80 104 % of control | [1] 105 % of control | [2] 92 % of control

COC(=O)c1nc(=S)[nH]c(C(=O)OC)c1C(=O)c1ccc2ccccc2c1
inactive: dose: 60.0 mg/kg/injection, schedule: Q01DX005 (ip), vehicle: Klucel + Tween-80 94 % of control | dose: 120.0 mg/kg/injection, schedule: Q01DX005 (ip), vehicle: Klucel + Tween-80 95 % of control | dose: 240.0 mg/kg/injection, schedule: Q01DX005 (ip), vehicle: Klucel + Tween-80 95 % of control

CC1(C)COC1(c1ccccc1)c1cccnc1 (centres undefined)
inactive: [12] 97 % of control | [13] 102 % of control | [14] 93 % of control

CCc1cccc(C)c1NC(=O)C(=O)CC(=O)c1ccc(Cl)cc1Cl
inactive: [12] 114 % of control | [13] 116 % of control | [14] 113 % of control

NC(=O)CNCc1ccccc1
inactive: [7] 94 % of control | [8] 99 % of control | [17] 94 % of control

CC(=O)O.[In]
inactive: dose: 0.1 mg/mouse/injection, schedule: Q01DX020 (oral), vehicle: saline with Tween-80 100 % of control

NCCCNC(=O)c1ccccc1N
inactive: [4] 100 % of control | [5] 100 % of control | [6] 100 % of control

Cc1ccc(S(=O)(=O)N/N=C/c2ccsc2)cc1
inactive: dose: 100.0 mg/kg/injection, schedule: Q04DX003 (ip), vehicle: Klucel (hydroxypropylcellulose) (HPC) 92 % of control | dose: 200.0 mg/kg/injection, schedule: Q04DX003 (ip), vehicle: Klucel (hydroxypropylcellulose) (HPC) 106 % of control | dose: 400.0 mg/kg/injection, schedule: Q04DX003 (ip), vehicle: Klucel (hydroxypropylcellulose) (HPC) 100 % of control

Cc1cc(N=Nc2cc(C)c(NC(=O)c3ccc(NC(=O)c4ccc(N)cc4)cc3)cc2C)ccc1N=Nc1ccc2cc(S(=O)(=O)O)cc(S(=O)(=O)O)c2c1
inactive: [7] 110 % of control | [8] 111 % of control | [17] 110 % of control

NCCCC(NN)C(=O)O (centres undefined)
inactive: dose: 3.3 mg/kg/injection, schedule: Q01DX009 (ip), vehicle: saline 101 % of control and 90 % of control | dose: 6.6 mg/kg/injection, schedule: Q01DX009 (ip), vehicle: saline 100 % of control and 95 % of control | dose: 7.5 mg/kg/injection, schedule: Q01DX009 (ip), vehicle: saline 100 % of control | dose: 10.0 mg/kg/injection, schedule: Q01DX009 (ip), vehicle: saline 99 % of control and 97 % of control | dose: 15.0 mg/kg/injection, schedule: Q01DX009 (ip), vehicle: saline 109 % of control and 93 % of control | dose: 22.5 mg/kg/injection, schedule: Q01DX009 (ip), vehicle: saline 102 % of control and 110 % of control | dose: 30.0 mg/kg/injection, schedule: Q01DX009 (ip), vehicle: saline 103 % of control

O=C(c1ccccc1)C(c1ccccc1)n1nc2c(c1-c1ccccc1)CCCC2 (centres undefined)
inactive: [9] 98 % of control | [10] 91 % of control | [11] 97 % of control

O=c1[nH]cc(O)c(=O)[nH]1
inactive: dose: 167.0 mg/kg/injection, schedule: Q01DX009 (ip), vehicle: saline with Tween-80 95 % of control | dose: 267.0 mg/kg/injection, schedule: Q01DX009 (ip), vehicle: saline with Tween-80 113 % of control | [3] 104 % of control | dose: 600.0 mg/kg/injection, schedule: Q01DX009 (ip), vehicle: saline with Tween-80 109 % of control

COc1cccc2c1C(=O)c1c(O)c3c(c(O)c1C2=O)C[C@@](O)(C(C)=O)CC3OC1CC(N/C(C)=C/C(=O)c2ccccc2)C(O)C(C)O1 (some centres undefined)
inactive: dose: 6.25 mg/kg/injection, schedule: Q04DX003 (ip), vehicle: saline with Tween-80 105 % of control | dose: 12.5 mg/kg/injection, schedule: Q04DX003 (ip), vehicle: saline with Tween-80 104 % of control | dose: 25.0 mg/kg/injection, schedule: Q04DX003 (ip), vehicle: saline with Tween-80 105 % of control and 107 % of control | dose: 50.0 mg/kg/injection, schedule: Q04DX003 (ip), vehicle: saline with Tween-80 101 % of control and 111 % of control

O=[N+]([O-])c1cnc(Sc2ccncn2)s1
inactive: dose: 1.56 mg/kg/injection, schedule: Q01DX009 (ip), vehicle: saline 103 % of control | dose: 3.12 mg/kg/injection, schedule: Q01DX009 (ip), vehicle: saline 108 % of control | dose: 6.25 mg/kg/injection, schedule: Q01DX009 (ip), vehicle: saline 100 % of control and 87 % of control | dose: 12.5 mg/kg/injection, schedule: Q01DX009 (ip), vehicle: saline 93 % of control

Cc1ccc(Cl)c(S(=O)(=O)F)c1
inactive: [2] 104 % of control | [3] 100 % of control
